{"source": "patent US9352013B2", "about": "“Uses of bremelanotide in therapy for female sexual dysfunction” (Palatin Technologies, Inc., priority 2012, dated 2016)", "key": {"[1]": {"test": "Example 1: pharmacokinetics after in-clinic subcutaneous dose", "assay_type": "in vivo, human", "conditions": "for AUC(0-t) / Cmax: human, sc", "method": "Ambulatory blood pressure monitoring was conducted following both placebo and randomized treatment group in-clinic administrations. Three periods of ambulatory blood pressure monitoring were included, the first period was from before to 24 hours after a single, in-clinic dose of placebo (to establish a baseline); the second and third periods occurred from before to 24 hours after each of 2 single, in-clinic doses of double-blind treatment, administered within 14 days of each other. Blood samples for pharmacokinetic analysis were collected before and at 0.5, 1.0, and 2.0 hours after each in-clinic bremelanotide single-dose treatment (double-blind only), to permit analysis of concentration-response relationships.\nMean pharmacokinetic parameters were determined by bremelanotide dose and visit, including Cmax determinations (the highest ng/mL concentration at either 0.5 or 1 hour post administration) and AUC determinations at two hours and, for a subset of subjects in each group, at four hours.\nThe Cmax for the mean curve was calculated by averaging the concentrations at each time point (0.5, 1, 2 and 4 hours), and this is shown in FIG. 3."}, "[2]": {"test_system": "premenopausal and postmenopausal women with FSAD", "test": "Phase 2 intranasal trials in women with FSAD: efficacy and adverse events", "assay_type": "in vivo, human", "method": "In the bremelanotide premenopausal arm, 42.5% of the subjects were discontinued due to hypertension, nausea, vomiting or myalgia. Subjects received a 10 mg intranasal dose of bremelanotide, with premenopausal subjects determined to have a mean plasma concentration of 88.5±51.9 ng/mL and a % CV of 58.6, and postmenopausal subjects determined to have a mean plasma concentration of 93.2±68.5 ng/mL and a % CV of 73.5. The minimum and maximum plasma concentration levels for all women at thirty minutes post dose range from 0.0 ng/mL to 207.0 ng/mL.\nResults with premenopausal women in a placebo-controlled, randomized, double-blind, parallel group, at-home exploratory study to evaluate the efficacy and safety of intranasally administered bremelanotide in subjects with female sexual arousal disorder (FSAD) were compared against results in the study of Example 1. In the intranasal study, a total of 76 premenopausal subjects were randomized, with 40 subjects to receive bremelanotide and 36 to receive placebo. Twenty-two subjects treated with bremelanotide and 29 treated with placebo completed the study, with 16 subjects who received bremelanotide (40%) discontinuing from the study due to an adverse event. This compares to the study of Example 1, in which as shown by Table 6 only 8% of subjects on the 1.75 mg subcutaneous dose discontinuing due to an adverse event."}}, "note": "Where two headings read alike, the source gives them in different places.", "data": [{"smiles": "CCCC[C@H](NC(C)=O)C(=O)N[C@H]1CC(=O)NCCCC[C@@H](C(=O)O)NC(=O)[C@H](Cc2c[nH]c3ccccc23)NC(=O)[C@H](CCCNC(=N)N)NC(=O)[C@@H](Cc2ccccc2)NC(=O)[C@H](Cc2c[nH]cn2)NC1=O", "note": "[bremelanotide, Ac-Nle-cyclo(-Asp-His-D-Phe-Arg-Trp-Lys)-OH]", "values": [{"measurement": "Cmax, Max", "setting": "[1]; 1.75 mg SC, Visit 5", "value": 115, "unit": "ng/mL"}, {"measurement": "Cmax, Min", "setting": "[1]; 1.75 mg SC, Visit 5", "value": 15, "unit": "ng/mL"}, {"measurement": "AUC(0-t)", "setting": "[1]; blood, 0.75 mg, 0.75 mg SC, Visit 5, read-out: AUC(0-2h), Median", "value": 52, "unit": "ng·h/mL"}, {"measurement": "AUC(0-t)", "setting": "[1]; blood, 0.75 mg, 0.75 mg SC, Visit 5, read-out: AUC(0-4h), Median", "value": 80, "unit": "ng·h/mL"}, {"measurement": "Cmax", "setting": "[1]; blood, 0.75 mg, 0.75 mg SC, Visit 5, read-out: Cmax, Median", "value": 36, "unit": "ng/mL"}, {"measurement": "AUC(0-t)", "setting": "[1]; blood, 0.75 mg, 0.75 mg SC, Visit 7, read-out: AUC(0-2h), Mean", "value": 53, "unit": "ng·h/mL"}, {"measurement": "AUC(0-t)", "setting": "[1]; blood, 0.75 mg, 0.75 mg SC, Visit 7, read-out: AUC(0-2h), Median", "value": 52, "unit": "ng·h/mL"}, {"measurement": "AUC(0-t)", "setting": "[1]; blood, 0.75 mg, 0.75 mg SC, Visit 7, read-out: AUC(0-4h), Mean", "value": 80, "unit": "ng·h/mL"}, {"measurement": "AUC(0-t)", "setting": "[1]; blood, 0.75 mg, 0.75 mg SC, Visit 7, read-out: AUC(0-4h), Median", "value": 79, "unit": "ng·h/mL"}, {"measurement": "Cmax", "setting": "[1]; blood, 0.75 mg, 0.75 mg SC, Visit 7, read-out: Cmax, Median", "value": 37, "unit": "ng/mL"}, {"measurement": "AUC(0-t)", "setting": "[1]; blood, 1.25 mg, 1.25 mg SC, Visit 5, read-out: AUC(0-2h), Mean", "value": 86, "unit": "ng·h/mL"}, {"measurement": "AUC(0-t)", "setting": "[1]; blood, 1.25 mg, 1.25 mg SC, Visit 5, read-out: AUC(0-2h), Median", "value": 81, "unit": "ng·h/mL"}, {"measurement": "AUC(0-t)", "setting": "[1]; blood, 1.25 mg, 1.25 mg SC, Visit 5, read-out: AUC(0-4h), Mean", "value": 138, "unit": "ng·h/mL"}, {"measurement": "AUC(0-t)", "setting": "[1]; blood, 1.25 mg, 1.25 mg SC, Visit 5, read-out: AUC(0-4h), Median", "value": 136, "unit": "ng·h/mL"}, {"measurement": "Cmax", "setting": "[1]; blood, 1.25 mg, 1.25 mg SC, Visit 5, read-out: Cmax, Mean", "value": 60, "unit": "ng/mL"}, {"measurement": "Cmax", "setting": "[1]; blood, 1.25 mg, 1.25 mg SC, Visit 5, read-out: Cmax, Median", "value": 56, "unit": "ng/mL"}, {"measurement": "AUC(0-t)", "setting": "[1]; blood, 1.25 mg, 1.25 mg SC, Visit 7, read-out: AUC(0-2h), Mean", "value": 84, "unit": "ng·h/mL"}, {"measurement": "AUC(0-t)", "setting": "[1]; blood, 1.25 mg, 1.25 mg SC, Visit 7, read-out: AUC(0-2h), Median", "value": 84, "unit": "ng·h/mL"}, {"measurement": "AUC(0-t)", "setting": "[1]; blood, 1.25 mg, 1.25 mg SC, Visit 7, read-out: AUC(0-4h), Mean", "value": 142, "unit": "ng·h/mL"}, {"measurement": "AUC(0-t)", "setting": "[1]; blood, 1.25 mg, 1.25 mg SC, Visit 7, read-out: AUC(0-4h), Median", "value": 144, "unit": "ng·h/mL"}, {"measurement": "Cmax", "setting": "[1]; blood, 1.25 mg, 1.25 mg SC, Visit 7, read-out: Cmax, Mean", "value": 60, "unit": "ng/mL"}, {"measurement": "Cmax", "setting": "[1]; blood, 1.25 mg, 1.25 mg SC, Visit 7, read-out: Cmax, Median", "value": 60, "unit": "ng/mL"}, {"measurement": "AUC(0-t)", "setting": "[1]; in vivo, 0.75 mg, 0.75 mg SC, Visit 5, read-out: AUC(0-2h), Mean", "value": 53, "unit": "ng·h/mL"}, {"measurement": "AUC(0-t)", "setting": "[1]; in vivo, 0.75 mg, 0.75 mg SC, Visit 5, read-out: AUC(0-4h), Mean", "value": 84, "unit": "ng·h/mL"}, {"measurement": "Cmax", "setting": "[1]; in vivo, 0.75 mg, 0.75 mg SC, Visit 5, read-out: Cmax, Mean", "value": 37, "unit": "ng/mL"}, {"measurement": "Cmax", "setting": "[1]; in vivo, 0.75 mg, 0.75 mg SC, Visit 7, read-out: Cmax, Mean", "value": 38, "unit": "ng/mL"}, {"measurement": "AUC(0-t)", "setting": "[1]; in vivo, 1.75 mg, 1.75 mg SC, Visit 5, read-out: AUC(0-2h), Mean", "value": 112, "unit": "ng·h/mL"}, {"measurement": "AUC(0-t)", "setting": "[1]; in vivo, 1.75 mg, 1.75 mg SC, Visit 5, read-out: AUC(0-2h), Median", "value": 112, "unit": "ng·h/mL"}, {"measurement": "AUC(0-t)", "setting": "[1]; in vivo, 1.75 mg, 1.75 mg SC, Visit 5, read-out: AUC(0-4h), Mean", "value": 178, "unit": "ng·h/mL"}, {"measurement": "AUC(0-t)", "setting": "[1]; in vivo, 1.75 mg, 1.75 mg SC, Visit 5, read-out: AUC(0-4h), Median", "value": 179, "unit": "ng·h/mL"}, {"measurement": "Cmax", "setting": "[1]; in vivo, 1.75 mg, 1.75 mg SC, Visit 5, read-out: Cmax, Mean", "value": 77, "unit": "ng/mL"}, {"measurement": "Cmax", "setting": "[1]; in vivo, 1.75 mg, 1.75 mg SC, Visit 5, read-out: Cmax, Median", "value": 78, "unit": "ng/mL"}, {"measurement": "AUC(0-t)", "setting": "[1]; in vivo, 1.75 mg, 1.75 mg SC, Visit 7, read-out: AUC(0-2h), Mean", "value": 112, "unit": "ng·h/mL"}, {"measurement": "AUC(0-t)", "setting": "[1]; in vivo, 1.75 mg, 1.75 mg SC, Visit 7, read-out: AUC(0-2h), Median", "value": 111, "unit": "ng·h/mL"}, {"measurement": "AUC(0-t)", "setting": "[1]; in vivo, 1.75 mg, 1.75 mg SC, Visit 7, read-out: AUC(0-4h), Mean", "value": 184, "unit": "ng·h/mL"}, {"measurement": "AUC(0-t)", "setting": "[1]; in vivo, 1.75 mg, 1.75 mg SC, Visit 7, read-out: AUC(0-4h), Median", "value": 180, "unit": "ng·h/mL"}, {"measurement": "Cmax", "setting": "[1]; in vivo, 1.75 mg, 1.75 mg SC, Visit 7, read-out: Cmax, Mean", "value": 78, "unit": "ng/mL"}, {"measurement": "Cmax", "setting": "[1]; in vivo, 1.75 mg, 1.75 mg SC, Visit 7, read-out: Cmax, Median", "value": 77, "unit": "ng/mL"}, {"measurement": "Cmax", "setting": "[1]; in vivo, 1.75 mg, 1.75 mg subcutaneous dose, Example 1, read-out: Cmax, maximum", "value": 115, "unit": "ng/mL"}, {"measurement": "Cmax", "setting": "[1]; in vivo, 1.75 mg, 1.75 mg subcutaneous dose, Example 1, read-out: Cmax, mean", "value": "77.2 ± 19.5", "unit": "ng/mL"}, {"measurement": "Cmax", "setting": "[1]; in vivo, 1.75 mg, 1.75 mg subcutaneous dose, Example 1, read-out: Cmax, median", "value": 78, "unit": "ng/mL"}, {"measurement": "Cmax", "setting": "[1]; in vivo, 1.75 mg, 1.75 mg subcutaneous dose, Example 1, read-out: Cmax, minimum", "value": 15, "unit": "ng/mL"}, {"measurement": "Subjects reporting at least one adverse event", "setting": "[2]; 10 mg intranasal, postmenopausal, placebo 47.7%", "value": 100, "unit": "%"}, {"measurement": "Subjects discontinuing from the study due to an adverse event", "setting": "[2]; 10 mg intranasal, premenopausal, 16 of 40 subjects", "value": 40, "unit": "%"}, {"measurement": "Sexual desire and arousal compared to placebo", "setting": "[2]; intranasal, premenopausal and postmenopausal women with FSAD", "value": "increase sexual desire and arousal compared to placebo"}]}]}
